Article PMC3183052, “Immunoprotectivity of HLA-A2 CTL Peptides Derived from Respiratory Syncytial Virus Fusion Protein in HLA-A2 Transgenic Mouse” (PLoS ONE, 2011)
Entries after “also recorded” stand apart in the source; their conditions may differ.

What was measured:
IL-13 = experiment: Lung IL-13 expression by real-time RT-PCR after RSV challenge; format: in vivo, mouse; conditions: peptide in IFA s.c. twice, day 4 post challenge, normalized to GAPDH, six mice per group
Method: (§1) To screen the immunodominance of epitopic peptide in the induction of RSV-F specific Th1/Th2 expression, HLA-A*0201 transgenic C57BL/6 mice were anesthetized with isoflurane and immunized with 1×10^7 pfu/50 µL of rAd-F0 or rAd-LacZ or 1×10^4 live RSV B1 via the intranasal (i.n.) route. Twenty days later, the mice were given booster immunization i.n. with the same dose. After 10 days of boost, mice were sacrificed and splenocytes were isolated for the cytokine ELISPOT assay. […] Mice body weight was monitored daily.
(§2) Lung RNA (5 µg) was mixed with 10 nmole random primers and 2 units of […] reverse transcriptase (Invitrogen) and incubated at 94°C for 10 minutes, 37°C for 30 minutes, and then at 4°C. The resulting cDNA was subjected to quantitative PCR analysis (The LightCycler® 480 Real-Time PCR system) with RSV N specific primer pairs, forward: 5′-[…]-3′ and reverse: 5′-[…]-3′. Expression of mouse GAPDH gene in the tested samples was detected as internal control by using specific primer pairs, forward: 5′-[…]-3′ and reverse: 5′-[…]-3′. The number of cycles (Ct) required for the amplification of the N gene and GAPDH was calculated. The relative expression of the N gene was calculated as followed: the individual Ct (RSV N) obtained from peptide- or vehicle-immunized lung was normalized by the respective Ct (GAPDH), and then [drawing 3] was divided by the mean of [drawing 4] . […]

CD8+ T lymphocytes = experiment: IFN-γ intracellular staining of CD8+ splenocytes; format: cell-based, mouse; conditions: splenocytes of peptide-immunized mice stimulated with 10 µg/mL peptide for five hours; flow cytometry
Method: For IFN-γ intracellular staining, splenocytes from peptide- or vehicle-immunized mice were stimulated in vitro with the respective peptides (peptide 3, 13, 14, and 23) (10 µg/mL) for five hours, washed with 1× PBS, and stained with anti-CD8 antibody conjugated with fluorescein isothiocyanate (FITC) (BD Biosciences) for 30 minutes, followed by subsequent fixation and permeabilization following the instructions of eBioscience fixation and permeabilization kit. The splenocytes were further stained for intracellular IFN-γ using PE-conjugated anti-IFN-γ antibody (BD Biosciences) for another 30 minutes. After washing, the samples were analyzed using flow cytometry.
Figure 2 Epitope-specific CD4^+ and CD8^+ T-cell activation in peptide-immunized HLA-A*0201 transgenic mice. Splenocytes were isolated on day 17 from mice immunized twice subcutaneously with the peptides 3, 13, 14, 17, 23, or vehicle at day 0 and day 10. The splenocytes were labeled with CFSE and cultured in the presence or absence of 10 µg/mL of the respective peptides for 8 days. Proliferation of CD4^+ (A) or CD8^+ (B) lymphocytes in response to the different CD8 epitopes was analyzed by flow cytometry using anti-CD4 or CD8 antibodies conjugated with PE-Cy5. Results are presented as cell division index (CDI) as described in the Materials and Methods. […]

splenocytic CD4+ T cells = experiment: CFSE proliferation of CD4+ T cells after in vitro peptide restimulation; format: cell-based, mouse; conditions: mice immunized s.c. twice with 50 µg peptide in IFA; splenocytes restimulated with 10 µg/mL peptide for 8 days
Method: as §1
The splenocytes were isolated, labeled with 5-(6)-carboxyfluorescein diacetate succinimidyl ester (CFSE) (Sigma-Aldrich) and stimulated in vitro with 10 µg/mL of the synthetic peptides for 4 or 8 days. Proliferation of splenocytic CD4^+ and CD8^+ T cells was analyzed by flow cytometry (BD FACSCalibur) using PE-Cy5-labeled specific antibody against CD4 (eBioscience) or CD8 (eBioscience), respectively. Cell division index (CDI), a ratio of CFSE-diluted CD4^+ or CD8^+ T cells stimulated by peptide to CFSE-diluted unstimulated CD4^+ or CD8^+ T cells, was calculated as shown below; [drawing 1] […]
Figure 2 Epitope-specific CD4^+ and CD8^+ T-cell activation in peptide-immunized HLA-A*0201 transgenic mice. […] Proliferation of CD4^+ (A) or CD8^+ (B) lymphocytes in response to the different CD8 epitopes was analyzed by flow cytometry using anti-CD4 or CD8 antibodies conjugated with PE-Cy5. […]

RSV-B1 = experiment: Lung viral load after live RSV challenge (real-time RT-PCR of RSV N gene); format: in vivo, HLA-A*0201 transgenic C57BL/6 mice; conditions: two s.c. doses of 50 µg peptide in IFA, challenge i.n. 1×10^7 pfu live RSV-B1, day 4 post-infection; 10 mice per group; vehicle mean = 0.95
Method: as §1, §2

With “YMLTNSELL [peptide 14, HLA-A*0201-restricted 9-mer synthetic peptide from F protein of RSV-B1 strain]” the “lung IL-13 expression vs vehicle” value (IL-13) was “normal expression”, the “proportion of IFN-γ+/CD8+ T lymphocytes” value (CD8+ T lymphocytes) was “marginally increased” and the “proliferation of CD4+ T cells (cell division index)” value (splenocytic CD4+ T cells) was “insignificant proliferation”. For the same sequence, the “expression of RSV N gene in the lungs (relative, normalized to GAPDH), mean” value (RSV-B1) was “no significant reduction; also recorded: reduced lung viral load only marginally”.
